Experimental data as given in US20250144179A1, “PEPTIDE HORMONE TO PREVENT OR TREAT VASOSPASM, BRAIN INJURY OR CEREBRAL EDEMA” (UNIVERSITY OF FLORIDA RESEARCH FOUNDATION, INCORPORATED, priority 2022, published 2025).

Experiments:
Assay type in all cases: in vivo, mouse
[1] = tested on: murine intracranial aneurysm rupture model; test: Intracranial aneurysm rupture model; details: 450 nmol/kg every other day from 3 days before aneurysm induction, vs vehicle
Protocol: (§1) Synthetic adropin^34-76 peptide was supplied from Bachem (Bubendorf, Switzerland) and diluted in 0.1% BSA in saline. 0.1% BSA in saline was used as vehicle control for all experiments. Adropin (450 nmol/kg) or an equivalent volume of vehicle was delivered via intraperitoneal injection 15 minutes post-SAH. For experiments ending at 24 hours post-SAH, an identical dose of adropin/vehicle was given again 12 hours later. For experiments ending 7 days post-SAH, adropin/vehicle was given again on days 1, 3 & 5 post-SAH. In the aneurysm rupture model, adropin was given at a dose of 450 nmol/kg starting 3 days before aneurysm induction (elastase injection). Adropin was given every other day until sacrifice
Cerebral aneurysms were induced as previously described. Briefly, mice were anesthetized with ketamine (100 mg/kg) and xylazine (10 mg/kg) before the left common carotid artery and the right renal artery were ligated with 7-0 silk suture (Ethicon Inc., Somerville, New Jersey). Carotid and renal artery ligations are hereafter referred to as ligations. One week after ligations, mice were anesthetized and 10 μL of 1.0 U/mL porcine pancreatic elastase solution (Worthington Biochemical Corp, Lakewood, New Jersey) diluted in phosphate buffered saline (PBS, Invitrogen, Carlsbad, California) was stereotactically injected into the right basal cistern at 1.2 mm rostral of bregma, 0.7 mm lateral of midline, and 5.3 mm deep to the surface of the brain. A subcutaneous osmotic pump (Alzet, Cupertino, California) placed in the right flank immediately after elastase injection and continually infused angiotensin II (Bachem, Torrence, California) at a dose of 1000 ng/kg/min. Elastase injection and osmotic pump placement are hereafter referred to as aneurysm induction. Following recovery from aneurysm induction, mice were fed a diet of 8% NaCl with 0.12% beta-aminopropionitrile (BAPN; Harlan Laboratories, Indianapolis, Indiana).
Three weeks post-aneurysm induction, mice were deeply anesthetized with ketamine/xylazine. A bilateral anterolateral thoracotomy with transverse sternotomy was made to expose the heart and great vessels. The right atrium was punctured with the tip of a 23 g needle as an outlet before the left ventricle was sequentially perfused with normal saline, 4% paraformaldehyde (PFA), and Coomassie Brilliant Blue dye in a 20% gelatin solution. Brains were carefully removed from the skull and inspected under a dissection microscope for the presence of aneurysms as evidenced by outpouching of cerebral arteries in or connected to the circle of Willis. Aneurysm rupture was identified by the presence of extravasated blood near an identified aneurysm. […]

[2] = tested on: wild-type mice, SAH model; test: Sodium fluorescein extravasation assay (blood-brain barrier permeability) after SAH; details: 24 hours post-SAH, adropin 450 nmol/kg i.p.
Protocol: as §1
(§2) SAH was modeled using the anterior circulation single autologous blood injection method^25,33 with minor adjustments. Mice were anesthetized with ketamine (100 mg/kg) and xylazine (10 mg/kg) before removing hair from scalp and cleaning with serial betadine—saline washes. The tail was also prepped from the base extending 1 cm distally. Mice were then fixed into a stereotaxic frame and body temperature maintained at 37° C. The scalp was incised along the sagittal suture from bregma to the nasal bone. The skin was reflected and a burr hole was drilled 5.0 mm rostral of bregma and 0.5 mm right laterally to avoid puncturing dural venous sinuses. […]

eNOS = test: Western blot of total eNOS and p-eNOS (Ser1179) in brain after SAH
Protocol: as §1
SAH was modeled using the anterior circulation single autologous blood injection method^25,33 with minor adjustments. Mice were anesthetized with ketamine (100 mg/kg) and xylazine (10 mg/kg) before removing hair from scalp and cleaning with serial betadine—saline washes. The tail was also prepped from the base extending 1 cm distally. Mice were then fixed into a stereotaxic frame and body temperature maintained at 37° C. The scalp was incised along the sagittal suture from bregma to the nasal bone. The skin was reflected and a burr hole was drilled 5.0 mm rostral of bregma and 0.5 mm right laterally to avoid puncturing dural venous sinuses. […] 50 μL of blood was drawn into a Hamilton syringe (Hamilton, Reno, Nevada) and passed through the cranial burr hole at an angle of 30° caudally until contact with the skull base (approximately 7.2 mm). The syringe was left in place for 30 seconds to allow for tissue accommodation before blood was manually injected at a rate of 10 μL/minute. After blood injection was complete, the syringe was left in place for an additional 3 minutes and then retracted slowly at a rate of 10 mm/minute. Sham surgery was the identical procedure and timing including placement of the stereotactic needle but without blood injection. After the needle and syringe were removed, the burr hole was covered and skin flap was sutured with 5-0 ethilon suture.
At 24 hours or 7 days post-SAH, mice were deeply anesthetized and perfused with 10 mL of ice-cold PBS. Brains were harvested from the skull and placed into a cold brain matrix (Harvard Apparatus, Holliston, Massachusetts). The olfactory lobe was removed, and brains were cut in half along the mid-sagittal plane. The right hemisphere was cut again 2 mm caudally from the rostral edge and the pieces of tissue were snap frozen in liquid N2. Once all tissue samples were collected, brains were homogenized with a Dounce homogenizer and incubated in radioimmunoprecipitation assay (RIPA) buffer at 4° C. for 90 minutes with constant agitation. Samples were centrifuged, supernatant collected, and protein quantified via Bradford assay. Samples were then frozen at −20° C. or used immediately. 30 μg of total protein was separated electrophoretically through a 4-15% tris-glycine gel at 90V for 60 minutes and transferred onto nitrocellulose membranes with 0.45 μm pore size. Membranes were blocked with 5% skim milk in TBST (5% BSA for phospho-eNOS blots) for 1 hours at room temperature and then probed with specified primary antibodies (Table 1) diluted in 5% skim milk (5% BSA for phospho-eNOS) overnight at 4° C. with constant agitation. […]

MMP9 = test: Western blot of MMP9 in brain after SAH; details: wild-type mice, adropin 450 nmol/kg i.p. vs vehicle
Protocol: as §1
as §2, with “bone.” for “bone. The skin was reflected and a burr hole was drilled 5.0 mm rostral of bregma and 0.5 mm right laterally to avoid puncturing dural venous sinuses.”
At 24 hours or 7 days post-SAH, mice were deeply anesthetized and perfused with 10 mL of ice-cold PBS. […] Samples were centrifuged, supernatant collected, and protein quantified via Bradford assay. […]

[3] = tested on: wild-type mice, SAH model; test: Cerebral blood flow by laser speckle contrast imaging after SAH; details: day 1 post-SAH, adropin 450 nmol/kg i.p.
Protocol: as §1
SAH was modeled using the anterior circulation single autologous blood injection method^25,33 with minor adjustments. Mice were anesthetized with ketamine (100 mg/kg) and xylazine (10 mg/kg) before removing hair from scalp and cleaning with serial betadine—saline washes. The tail was also prepped from the base extending 1 cm distally. Mice were then fixed into a stereotaxic frame and body temperature maintained at 37° C. […]
One day post-SAH, animals were anesthetized with ketamine/xylazine as described above, placed in a supine position in a stereotaxic frame. […] Blood flow (perfusion) values are calculated using PIMsoft software (PeriMed AB, Stockholm, Sweden) as arbitrary “perfusion units”. […]

adropin (CHSRSADVDSLSESSPNSSPGPCPEKAPPPQKPSHEGSYLLQP) [Synthetic adropin^34-76 peptide from Bachem]
aneurysm formation [1]: did not significantly reduce aneurysm formation
aneurysm rupture [1]: did not significantly reduce aneurysm formation (FIG. 9C) or aneurysm rupture
deficit-free (symptom-free) survival [1]: extended deficit-free survival compared to vehicle
proportion of aneurysm ruptures that were symptom-producing [1]: less likely to be symptom-producing
barrier permeability, average area of positive fluorescein signal [2]: adropin treatment reduced this effect
phospho-eNOS levels (eNOS; 7 day post-SAH): adropin treatment increase phospho-eNOS levels
total eNOS (eNOS; 7 day post-SAH): slightly increased in both SAH groups; however, neither reached statistical significance
Phospho-eNOS/eNOS ratio (eNOS; 7 day post-SAH, p=0.08 vs SAH+vehicle, p=0.08 vs sham+vehicle): trended higher with adropin treatment
p-eNOS/total eNOS ratio (eNOS; one day post-SAH): no change in p-eNOS/total eNOS ratios between any groups
eNOS phosphorylation (Ser1179) (eNOS; one day post-SAH, vs SAH+vehicle): increased eNOS phosphorylation one day post-SAH
cleaved MMP9 levels (immunoblot) (MMP9): an effect abolished by adropin treatment
cerebral blood flow (CBF), perfusion [3]: adropin treatment restored CBF back to baseline
